Measured values from PubChem BioAssay AID493147 (Broad Institute, 2011).
“And” between values parts separate entries of the source, which are not always exact repeats. Identical values can stand only once. Results filed as inconclusive are left out. The source made the active and inactive calls. The rule behind the calls is not given here.

Key:
[1] = PubChem AID 493147; conditions: NIH-3T3 viability with fluconazole, Alamar Blue, 48 h
[2] = tested on: NIH-3T3 viability with fluconazole, Alamar Blue, 48 h; assay: PubChem AID 493147

O=C(C1CCCCC1)N1CCN(c2ccccn2)CC1
activity change, negative = toxicity ([1]; at 26 µM (top of the series)): -25.3% (inactive)

O=C(Cn1nc(-c2ccccc2)c2ccccc21)OC1CCC1
AC50 [2]: 191 nM

Cc1nn(S(C)(=O)=O)c2ccccc12
activity change, negative = toxicity ([1]; at 26 µM (top of the series)): -19.3% (inactive)

COC(=O)Cn1nc(-c2ccc(OC)cc2)c2ccccc21
AC50 [2]: 1020 nM

CC(C)C(=O)N1CCN(c2ccccn2)CC1
activity change, negative = toxicity ([1]; at 26 µM (top of the series)): 10% (inactive)

O=C(c1ccc(Cl)cc1)N1CCN(c2ncccc2C(F)(F)F)CC1
activity change, negative = toxicity ([1]; at 26 µM (top of the series)): -31.9% (inactive)

CCCNC(=O)Cn1nc(-c2ccccc2)c2ccccc21
activity change, negative = toxicity ([1]; at 26 µM (top of the series)): 20.3% (inactive)

O=C(c1ccc(F)cc1)N1CCN(c2ccccn2)CC1
activity change, negative = toxicity ([1]; at 26 µM (top of the series)): -8.14% (inactive)

COC(=O)Cn1nc(-c2ccccc2)c2cc(OC)ccc21
activity change, negative = toxicity ([1]; at 26 µM (top of the series)): -0.175% (inactive)

Cc1ccc(N2CCN(C(=O)c3ccc(Cl)cc3)CC2)nc1
AC50 [2]: > 26000 nM (inactive)

N#Cc1cccc(N2CCN(C(=O)c3ccc(Cl)cc3)CC2)n1
activity change, negative = toxicity ([1]; at 26 µM (top of the series)): -27.5% (inactive)

CNC(=O)Cn1nc(-c2ccccc2)c2ccccc21
activity change, negative = toxicity ([1]; at 26 µM (top of the series)): 2.83% (inactive)

CC1CCN(C(=O)Cn2c3ccccc3c3nc4n(c(=O)c32)CCS4)CC1
AC50 [2]: > 26000 nM (inactive)

O=c1c2[nH]c3ccccc3c2nc2n1CCS2
activity change, negative = toxicity ([1]; at 26 µM (top of the series)): -31.6% (inactive)

COC(=O)Cn1nc(-c2ccc(C(F)(F)F)cc2)c2ccccc21
AC50 [2]: < 100 nM

c1ccc(-c2nn(Cc3ncco3)c3ccccc23)cc1
activity change, negative = toxicity ([1]; at 26 µM (top of the series)): -36.1% (inactive)

O=C(Cn1nc(C(=O)N2CCCCC2)c2ccccc21)N1CCOCC1
activity change, negative = toxicity ([1]; at 26 µM (top of the series)): -3.68% (inactive)

CC(C)OC(=O)Cn1nc(-c2ccccc2)c2ccccc21
activity change, negative = toxicity ([1]; at 26 µM (top of the series)): 11.4% (inactive)

COC(=O)Cn1nc(C)c2ccccc21
activity change, negative = toxicity ([1]; at 26 µM (top of the series)): -17.5% (inactive)

O=C(c1cccc(Cl)c1)N1CCN(c2ccccn2)CC1
activity change, negative = toxicity ([1]; at 26 µM (top of the series)): -4.09% (inactive)

O=C(Cn1nc(-c2ccccc2)c2ccccc21)NCc1ccc(Cl)cc1
AC50 [2]: 25900 nM

COC(=O)Cn1nc(-c2cccc(F)c2)c2ccccc21
AC50 [2]: 12800 nM

O=C(O)Cn1nc(-c2ccccc2)c2ccccc21
activity change, negative = toxicity ([1]; at 26 µM (top of the series)): -23% (inactive)

COC(=O)Cn1nc(-c2ccc(Cl)cc2)c2ccccc21
activity change, negative = toxicity ([1]; at 26 µM (top of the series)): -6.09% (inactive)

O=C(Cn1c2ccc(F)cc2c2nc3n(c(=O)c21)CCS3)N1CCCCCC1
activity change, negative = toxicity ([1]; at 26 µM (top of the series)): 21.2% (inactive)

COc1ccc2c(c1)c1nc3n(c(=O)c1n2CC(=O)N1CCC(Cc2ccccc2)CC1)CCS3
activity change, negative = toxicity ([1]; at 26 µM (top of the series)): 8.36% (inactive)

COCCC(=O)N1CCN(c2ccccn2)CC1
activity change, negative = toxicity ([1]; at 26 µM (top of the series)): 2.45% (inactive)

O=C(Cn1nc(-c2ccccc2)c2ccccc21)Oc1ccccc1
activity change, negative = toxicity ([1]; at 26 µM (top of the series)): 26.7% (inactive)

CCN(CC)C(=O)Cn1c2ccc(F)cc2c2nc3n(c(=O)c21)CCS3
activity change, negative = toxicity ([1]; at 26 µM (top of the series)): -39.8% (inactive)

O=C(c1ccc(Cl)cc1)N1CCN(c2ccc(C(F)(F)F)cn2)CC1
activity change, negative = toxicity ([1]; at 26 µM (top of the series)): 0.409% (inactive)

O=C(Cn1c2ccccc2c2nc3n(c(=O)c21)CCS3)N1CCCCC1
activity change, negative = toxicity ([1]; at 26 µM (top of the series)): -8.42% (inactive)

O=C(c1ccccc1Cl)N1CCN(c2ccccn2)CC1
activity change, negative = toxicity ([1]; at 26 µM (top of the series)): -3.33% (inactive)

COC(=O)Cn1nc(-c2ccccc2C)c2ccccc21
activity change, negative = toxicity ([1]; at 26 µM (top of the series)): 24.8% (inactive)

COC(=O)Cn1c2ccccc2c2nc3n(c(=O)c21)CCS3
AC50 [2]: 2660 nM

COC(=O)C(C)(C)n1nc(-c2ccccc2)c2ccccc21
activity change, negative = toxicity ([1]; at 26 µM (top of the series)): -1.11% (inactive)

COCCn1nc(-c2ccccc2)c2ccccc21
activity change, negative = toxicity ([1]; at 26 µM (top of the series)): -7.82% (inactive)

COC(=O)Cn1c(-c2ccccc2)nc2ccccc21
activity change, negative = toxicity ([1]; at 26 µM (top of the series)): 10.3% (inactive)

COC(=O)Cn1nc(I)c2ccccc21
AC50 [2]: 528 nM

O=C(O)c1nn(Cc2ccc(Cl)cc2)c2ccccc12
activity change, negative = toxicity ([1]; at 26 µM (top of the series)): -35.3% (inactive)

COC(=O)Cn1nc(-c2ccccc2)c2ccccc21
activity change, negative = toxicity ([1]; at 26 µM (top of the series)): -33.7% (inactive)

O=C(c1ccc(Cl)cc1)N1CCN(c2cccc(C(F)(F)F)n2)CC1
AC50 [2]: 17600 nM

O=C(Cn1c2ccccc2c2nc3n(c(=O)c21)CCS3)NCCc1ccc(Cl)cc1
activity change, negative = toxicity ([1]; at 26 µM (top of the series)): -12% (inactive)

COC(=O)Cn1nc(-c2ccccc2)c2cc(Cl)ccc21
activity change, negative = toxicity ([1]; at 26 µM (top of the series)): -3.67% (inactive)

COc1ccc(NC(=O)Cn2c3ccccc3c3nc4n(c(=O)c32)CCS4)cc1
AC50 [2]: 14900 nM

COC(=O)Cn1nc(-c2ccccc2)c2ccc(C(F)(F)F)cc21
activity change, negative = toxicity ([1]; at 26 µM (top of the series)): -18.2% (inactive) and -8.9% (inactive)

N#CCn1nc(-c2ccccc2)c2ccccc21
activity change, negative = toxicity ([1]; at 26 µM (top of the series)): 8% (inactive)

O=C(Cn1c2ccc(F)cc2c2nc3n(c(=O)c21)CCS3)N1CCCCC1
activity change, negative = toxicity ([1]; at 26 µM (top of the series)): -20.6% (inactive)

COc1cccnc1N1CCN(C(=O)c2ccc(Cl)cc2)CC1
AC50 [2]: 124 nM

O=c1c2[nH]c3ccc(F)cc3c2nc2n1CCS2
activity change, negative = toxicity ([1]; at 26 µM (top of the series)): 9.27% (inactive)

COC(=O)Cn1nc(-c2ccccc2OC)c2ccccc21
AC50 [2]: 1040 nM

COC(=O)Cn1ncc2ccccc21
AC50 [2]: < 100 nM

Cc1cccc(N2CCN(C(=O)c3ccc(Cl)cc3)CC2)n1
AC50 [2]: 120 nM

O=C(Cn1c2ccccc2c2nc3n(c(=O)c21)CCS3)N1CCOCC1
activity change, negative = toxicity ([1]; at 26 µM (top of the series)): -8.2% (inactive)

COC(=O)Cn1nc(-c2ccccc2)c2ccc(OC)cc21
AC50 [2]: < 100 nM

COC(=O)CCCn1nc(-c2ccccc2)c2ccccc21
activity change, negative = toxicity ([1]; at 26 µM (top of the series)): -45% (inactive)

O=C(c1ccc(Cl)cc1)N1CCN(c2nc3ccccc3o2)CC1
AC50 [2]: 24200 nM

N#Cc1ccc(C(=O)N2CCN(c3ccccn3)CC2)cc1
activity change, negative = toxicity ([1]; at 26 µM (top of the series)): 15.4% (inactive)

CC(C)(C)OC(=O)Cn1nc(-c2ccccc2)c2ccccc21
activity change, negative = toxicity ([1]; at 26 µM (top of the series)): 20.8% (inactive)

COC(=O)Cn1nc(-c2ccccc2)c2cc(C)ccc21
activity change, negative = toxicity ([1]; at 26 µM (top of the series)): 3.35% (inactive)

COC(=O)Cn1nc(-c2ccc(C)cc2)c2ccccc21
activity change, negative = toxicity ([1]; at 26 µM (top of the series)): -25% (inactive)

N#Cc1ccc(N2CCN(C(=O)c3ccc(Cl)cc3)CC2)nc1
activity change, negative = toxicity ([1]; at 26 µM (top of the series)): -32.5% (inactive)

COC(=O)Cn1nc(-c2cccc(OC)c2)c2ccccc21
activity change, negative = toxicity ([1]; at 26 µM (top of the series)): -29.2% (inactive)

COC(=O)[C@@H](C)n1nc(-c2ccccc2)c2ccccc21 (racemic)
activity change, negative = toxicity ([1]; at 26 µM (top of the series)): -17.9% (inactive)

Cc1ccnc(N2CCN(C(=O)c3ccc(Cl)cc3)CC2)c1
activity change, negative = toxicity ([1]; at 26 µM (top of the series)): -20% (inactive)

COc1ccc2c(c1)c1nc3n(c(=O)c1n2CC(=O)N1CCC(C)CC1)CCS3
activity change, negative = toxicity ([1]; at 2.6 µM (top of the series)): 41.3% (inactive)

O=C(Cn1c2ccccc2c2nc3n(c(=O)c21)CCS3)N1CCCC1
AC50 [2]: < 100 nM | activity change, negative = toxicity ([1]; at 26 µM (top of the series)): -33.6% (inactive) and 2.45% (inactive)

CCCCC(=O)N1CCN(c2ccccn2)CC1
activity change, negative = toxicity ([1]; at 26 µM (top of the series)): 5.32% (inactive)

COc1ccc(C(=O)N2CCN(c3ccccn3)CC2)cc1
AC50 [2]: 461 nM

COC(=O)Cn1nc(-c2ccc(F)cc2)c2ccccc21
activity change, negative = toxicity ([1]; at 26 µM (top of the series)): -40.8% (inactive)

COC(=O)Cn1nc(-c2ccccc2)c2ccc(C)cc21
activity change, negative = toxicity ([1]; at 26 µM (top of the series)): 16.9% (inactive)

O=C1OCCC1n1nc(-c2ccccc2)c2ccccc21 (configuration not stated)
activity change, negative = toxicity ([1]; at 26 µM (top of the series)): 4.08% (inactive)
